Measurements taken from PubChem BioAssay (NCI).
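Exposure lasted 48 hours, with cells grown in 96-well plates and compounds tested at five concentrations. GI50 = concentration required for 50% inhibition of growth. At the TGI there is no net growth.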

Legend:
Assay in all cases: NCI-60 cell line screen, 48 h
[1] = test system: SK-MEL-5 melanoma
[2] = test system: HCT-15 colon
[3] = test system: NCI-H23 lung
[4] = test system: OVCAR-3 ovarian
[5] = test system: UACC-62 melanoma
[6] = test system: RXF 393 renal
[7] = test system: HT29 colon
[8] = test system: MDA-MB-435
[9] = test system: MALME-3M melanoma
[10] = test system: SW-620 colon

| SMILES | GI50 [1] [µM] | TGI [1] [µM] | GI50 [2] [µM] | TGI [2] [µM] | GI50 [3] [µM] | TGI [3] [µM] | GI50 [4] [µM] | TGI [4] [µM] | GI50 [5] [µM] | TGI [5] [µM] | GI50 [6] [µM] | TGI [6] [µM] | GI50 [7] [µM] | TGI [7] [µM] | GI50 [8] [µM] | TGI [8] [µM] | GI50 [9] [µM] | TGI [9] [µM] | GI50 [10] [µM] | TGI [10] [µM] |
| --- | --- | --- | --- | --- | --- | --- | --- | --- | --- | --- | --- | --- | --- | --- | --- | --- | --- | --- | --- | --- |
| COc1ccc(C(=O)COc2cccc(/C=C3\COc4ccc5ccccc5c4C3=O)c2)cc1 | 5.58 | > 100 | 7.59 | > 100 | 5.17 | > 100 | 3.12 | 11.5 | 16.3 | > 100 | 9.8 | > 100 | 6.08 | > 100 | 4.08 | 41.3 | 10.2 | > 100 | 3.33 | 13.7 |
| CN(C)c1ccc(N)cc1 | 3.91 | 13.7 | 6.66 | 38.5 | 3.14 | 14.1 | 2.14 | 6.12 | 4 | 16.8 | 10.4 | 26 | 3.04 | 10.8 | 3.4 | 15.2 | 3.17 | 13.8 | 4.15 | 17.2 |
| COc1cc2oc(-c3ccc(O)cc3)cc(=O)c2c(OC)c1OC |  | > 100 |  | > 100 |  | > 100 |  | > 100 |  | > 100 |  | > 100 |  | > 100 |  | > 100 |  | > 100 |  | > 100 |
| CCOC(=O)Sc1ncnc2nc[nH]c12 | 5.96 | > 100 | 2.86 | > 100 | 3.93 | > 100 | 0.474 | > 100 | 1.37 | > 100 | 15.1 | > 100 | 3.07 | > 100 | 1.47 | > 100 | 27.1 | > 100 | 3.89 | > 100 |
| CN/N=C(/CCN1CCCC1)CC(c1ccccc1)c1c(O)c2ccccc2oc1=O (centres undefined) |  | > 100 |  | > 100 |  | > 100 |  | > 100 |  | > 100 |  | > 100 |  | > 100 |  | > 100 |  | > 100 |  | > 100 |
| CCN(CC)c1sc(N(CC)CC)c2c1SSSSS2 | 0.851 | 1.95 | 1.24 | > 34.2 | 0.255 | 0.674 | 1.44 | 3.39 | 0.721 | 1.87 | 1.59 |  | 2.06 | 5.2 | 0.844 | 2.09 | 1.59 | 3.45 | 0.132 | 1.14 |
| COC(=O)Nc1nc2ccc(Oc3ccc(NC(=O)Nc4ccccc4)cc3)cc2[nH]1 | 0.0702 | 1.18 | 0.135 | > 25 | 0.545 | > 12.3 | 0.0713 | 0.205 | 0.0933 | 4.5 | 0.069 | 0.533 | 0.0937 | 1.01 | 0.0474 | 0.12 | 0.14 | > 11.4 | 0.101 | > 10.2 |
| CC(=O)OC1=NN=C2COC(c3ccccc3OC(C)=O)=NN2C1 |  | 18.1 |  | > 50 |  | > 50 |  | > 50 |  | > 50 |  | > 50 |  | > 50 |  | > 50 |  | > 50 |  | > 50 |
| CCN(CC)CCCC(C)Nc1c(C)cnc2cc(Cl)c(C)cc12 (centres undefined) | 3.92 | 13.3 | 11.7 | > 68 | 11.5 | 23.9 | 10.1 | 27.4 | 3.44 | 11.1 | 8.75 | 26.6 | 2.72 | > 24.8 | 7.8 | 20.1 | 14.9 | 29.7 | 10.6 | 25.7 |
| COc1cc(C2=NN(C(C)=O)C(c3ccc(OC(C)=O)cc3OC(C)=O)O2)c(OC(C)=O)c2ccccc12 (centres undefined) | 0.984 | 7.54 | 0.581 | 25.6 | 2.55 | > 78.9 | 0.402 | 13.9 | 0.897 | 9.67 | 1 | 12.5 | 4.48 | 41.3 | 1.38 | 39 | 1.83 | 20.5 | 0.608 | 27.5 |
| Cc1cc(SCC(=O)c2ccccc2)nc2ccccc12 |  | > 100 |  | > 100 |  | > 100 |  | > 100 |  | > 100 |  | > 100 |  | > 100 |  | > 100 |  | > 100 |  | > 100 |
